Paper PMC13050904, “Sensitivity to cuticular hydrocarbons across the odorant receptor family in the Indian jumping ant, Harpegnathos saltator” (Frontiers in Insect Science, 2026)

Experiments:
[1] = target: T1, HsOr152 (Harpegnathos saltator, UniProt Z9SO02V7Q0); assay: single-sensillum recording of Drosophila ab2A neurons expressing the receptor; assay type: cell-based; conditions: 20 nmol dosed on heated cartridge; with DmOrco; excitatory; solvent (pentane) response subtracted
T1 construct: V subfamily OR; full-length, UAS-HsOr152 (pUASg.attB, attP40) in D. melanogaster ab2A neurons by Orco-GAL4; complex with endogenous DmOrco (D. melanogaster); with Odorant receptor coreceptor (Drosophila melanogaster)
T1 sequence (Z9SO02V7Q0 1-385): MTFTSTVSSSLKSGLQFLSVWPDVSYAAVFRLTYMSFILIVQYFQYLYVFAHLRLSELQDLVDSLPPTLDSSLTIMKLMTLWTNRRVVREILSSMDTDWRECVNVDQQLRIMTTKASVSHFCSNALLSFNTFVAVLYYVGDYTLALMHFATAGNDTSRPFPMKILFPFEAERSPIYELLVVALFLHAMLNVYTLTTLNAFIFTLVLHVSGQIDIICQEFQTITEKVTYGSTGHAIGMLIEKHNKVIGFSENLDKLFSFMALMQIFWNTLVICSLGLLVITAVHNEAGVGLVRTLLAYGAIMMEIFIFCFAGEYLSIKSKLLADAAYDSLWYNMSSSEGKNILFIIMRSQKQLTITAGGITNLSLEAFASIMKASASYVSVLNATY
T1 sequence (Q9VNB5 1-486 partner): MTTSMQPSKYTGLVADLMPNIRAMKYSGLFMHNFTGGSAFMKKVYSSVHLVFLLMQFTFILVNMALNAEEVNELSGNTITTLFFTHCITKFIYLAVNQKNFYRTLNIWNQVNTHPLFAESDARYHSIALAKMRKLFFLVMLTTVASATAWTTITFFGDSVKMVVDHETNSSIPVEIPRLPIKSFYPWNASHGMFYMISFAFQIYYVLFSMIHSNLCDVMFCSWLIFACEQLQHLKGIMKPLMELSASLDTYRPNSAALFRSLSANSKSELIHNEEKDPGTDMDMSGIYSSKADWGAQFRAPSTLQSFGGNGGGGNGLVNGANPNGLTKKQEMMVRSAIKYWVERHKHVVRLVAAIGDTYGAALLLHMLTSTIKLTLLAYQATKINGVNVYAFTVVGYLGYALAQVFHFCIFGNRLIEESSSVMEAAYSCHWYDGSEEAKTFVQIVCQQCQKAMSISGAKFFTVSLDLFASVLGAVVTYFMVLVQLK

[2] = target: T2, HsOr115 (Harpegnathos saltator, UniProt Z9I713BLV2); assay: as above; assay type: cell-based; conditions: 20 nmol dosed on heated cartridge; with DmOrco; excitatory; solvent (pentane) response subtracted
T2 construct: full-length, UAS-HsOr (pUASg.attB, attP40) in D. melanogaster ab2A neurons by Orco-GAL4; complex with endogenous DmOrco (D. melanogaster); with Odorant receptor coreceptor (Drosophila melanogaster)
T2 sequence (Z9I713BLV2 1-398): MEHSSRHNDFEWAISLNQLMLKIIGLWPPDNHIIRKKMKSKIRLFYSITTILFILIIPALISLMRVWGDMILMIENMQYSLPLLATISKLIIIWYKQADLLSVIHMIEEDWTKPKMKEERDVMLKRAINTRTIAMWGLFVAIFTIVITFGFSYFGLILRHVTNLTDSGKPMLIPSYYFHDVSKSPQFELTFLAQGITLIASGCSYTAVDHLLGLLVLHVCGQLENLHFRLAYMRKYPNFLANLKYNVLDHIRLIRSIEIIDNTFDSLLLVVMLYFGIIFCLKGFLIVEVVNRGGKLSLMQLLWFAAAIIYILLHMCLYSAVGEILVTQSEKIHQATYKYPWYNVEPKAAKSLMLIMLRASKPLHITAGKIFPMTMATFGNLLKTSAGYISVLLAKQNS
T2 sequence (Q9VNB5 1-486 partner): T1 sequence (Q9VNB5 1-486 partner)

## CCCCCCCCCCCCCCCCCCCCCCCCCCCC [C28, octacosane]
[1]
  mean response (Δspikes/s) at 20 nmol: 87.5 Δspikes/s

## CCCCCCCCCCCCCCCCCCCCCCCCCCCCCC [C30]
[2]
  response (Δspikes/s) at 20 nmol: 33.0 Δspikes/s
